In ChEMBL document CHEMBL4619789, “RAF Kinases in Cancer: A Moving Target and Degradation Therapy” (ACS Med Chem Lett, 2020) one finds DC50 and %max data, which are given here for twelve molecules.

Where only a bound is given, the exact number is not on record here.

Assay [1] can be described thus: Protac activity at E3 ubiquitin-protein ligase/B-raf V600E mutant in human A375 cells assessed as induction of B-raf V600E degradation measured after 72 hrs by Western cellular assay. Type of assay: cell-based. Conditions: A-375, 72 h.
Assay [2] deals with A-375. As to the kind of experiment: Protac activity at E3 ubiquitin-protein ligase/B-raf V600E mutant in human A375 cells assessed as induction of B-raf V600E degradation measured after 72 hrs by Western cellular assay relative to control. Type of assay: cell-based.

Consider `O=C1CCC(N2Cc3cc(/C=C/CN4CCN(c5ccc(-c6cnc7[nH]cc(C(=O)c8c(F)ccc(NS(=O)(=O)N9CC[C@@H](F)C9)c8F)c7c6)cc5)CC4)ccc3C2=O)C(=O)N1` (some centres undefined), for which the DC50 in assay [1] was less than 0.01 µM. The %max in assay [2] was less than 70%.

For `Cc1ncsc1-c1ccc(CNC(=O)[C@@H]2C[C@@H](O)CN2C(=O)[C@@H](c2cc(OCCN3CCN(c4ccc(-c5cnc6[nH]cc(C(=O)c7c(F)ccc(NS(=O)(=O)N8CC[C@@H](F)C8)c7F)c6c5)cc4)CC3)no2)C(C)C)cc1`, in assay [1], the DC50 was less than 0.01 µM. Also, in assay [2], the %max is greater than 70%.

For `Cc1ncsc1-c1ccc([C@H](CO)NC(=O)[C@@H]2C[C@@H](O)CN2C(=O)[C@@H](c2cc(N3CCC(N4CCN(c5ccc(-c6cnc7[nH]cc(C(=O)c8c(F)ccc(NS(=O)(=O)N9CC[C@@H](F)C9)c8F)c7c6)cc5)CC4)CC3)no2)C(C)C)cc1`, in assay [1], the DC50 was 0.01 to 0.05 µM. Moreover, the %max in assay [2] is greater than 70%.

Consider `O=C1CCC(N2Cc3cc(N4CC(OCC5CCN(c6ccc(-c7cnc8[nH]cc(C(=O)c9c(F)ccc(NS(=O)(=O)N%10CC[C@@H](F)C%10)c9F)c8c7)cc6)CC5)C4)ccc3C2=O)C(=O)N1` (some centres undefined), for which the DC50 in assay [1] was less than 0.01 µM. Further, the %max in assay [2] was less than 70%.

With `O=C1CCC(N2Cc3cc(CCCN4CCC5(C4)CN(c4ccc(-c6cnc7[nH]cc(C(=O)c8c(F)ccc(NS(=O)(=O)N9CC[C@@H](F)C9)c8F)c7c6)cc4)C5)ccc3C2=O)C(=O)N1` (some centres undefined), in assay [1], the DC50 is less than 0.01 µM. In addition, in assay [2], the %max is less than 70%.

Take `Cc1ncsc1-c1ccc(CNC(=O)[C@@H]2C[C@@H](O)CN2C(=O)[C@@H](NC(=O)CN2CC(N3CCN(c4ccc(-c5cnc6[nH]cc(C(=O)c7c(F)ccc(NS(=O)(=O)N8CC[C@@H](F)C8)c7F)c6c5)cc4)CC3)C2)C(C)(C)C)cc1`: the DC50 in assay [1] is less than 0.01 µM. Further, in assay [2], the %max was greater than 70%.

Take `Cc1ncsc1-c1ccc([C@H](C)NC(=O)[C@@H]2C[C@@H](O)CN2C(=O)[C@@H](NC(=O)CN2CCC(CN3CCN(c4ccc(-c5cnc6[nH]cc(C(=O)c7c(F)ccc(NS(=O)(=O)N8CC[C@@H](F)C8)c7F)c6c5)cc4)CC3)CC2)C(C)(C)C)cc1`: in assay [1], the 50% degradation concentration (DC50) is less than 0.01 µM. Moreover, the %max in assay [2] is greater than 70%.

For `O=C1CCC(N2Cc3cc(N4CC[C@@H](N5CCN(c6ccc(-c7cnc8[nH]cc(C(=O)c9c(F)ccc(NS(=O)(=O)N%10CC[C@@H](F)C%10)c9F)c8c7)cc6)CC5)C4)ccc3C2=O)C(=O)N1` (some centres undefined), the DC50 in assay [1] is less than 0.01 µM. Further, in assay [2], the %max is less than 70%.

With `O=C1CCC(N2Cc3cc(N4CC(N5CCN(c6ccc(-c7cnc8[nH]cc(C(=O)c9c(F)ccc(NS(=O)(=O)N%10CC[C@@H](F)C%10)c9F)c8c7)cc6)CC5)C4)ccc3C2=O)C(=O)N1` (some centres undefined), the DC50 in assay [1] was less than 0.01 µM. Also, the %max in assay [2] was less than 70%.

As for `O=C1CCC(N2Cc3cc(N4CCN(Cc5ccc(-c6cnc7[nH]cc(C(=O)c8c(F)ccc(NS(=O)(=O)N9CC[C@@H](F)C9)c8F)c7c6)cc5)CC4)ccc3C2=O)C(=O)N1` (some centres undefined), the DC50 in assay [1] was less than 0.01 µM. Moreover, the %max in assay [2] was greater than 70%.

`Cc1ncsc1-c1ccc(CNC(=O)[C@@H]2C[C@@H](O)CN2C(=O)[C@@H](NC(=O)CN2CCN(CC3CCN(c4ccc(-c5cnc6[nH]cc(C(=O)c7c(F)ccc(NS(=O)(=O)N8CC[C@@H](F)C8)c7F)c6c5)cc4)CC3)CC2)C(C)(C)C)cc1`: the DC50 in assay [1] was less than 0.01 µM. Besides, the %max in assay [2] was greater than 70%.

For the molecule `Cc1ncsc1-c1ccc(CNC(=O)[C@@H]2C[C@@H](O)CN2C(=O)[C@@H](NC(=O)CN2CCC(CN3CCN(c4ccc(-c5cnc6[nH]cc(C(=O)c7c(F)ccc(NS(=O)(=O)N8CC[C@@H](F)C8)c7F)c6c5)cc4)CC3)CC2)C(C)(C)C)cc1`, the DC50 in assay [1] was less than 0.01 µM. The %max in assay [2] is greater than 70%.

The DC50 is the midpoint of the concentration-degradation curve.
